# According to patent US10750729B2, “Pig for atrioventricular block model, monkey for atrioventricular block model, guinea pig for atrioventricular block model, and use thereof” (Toho University, priority 2012, dated 2020):
# Key:
# rat = details: cited from earlier work
# Guinea pigs (Hartley) = experiment: Test Example 3-2: electrocardiogram and aortic pressure of halothane-anesthetized guinea pigs (BAF312); format: in vivo; details: guinea pig
# Experimental: Guinea pigs (Hartley, body weight: 420 g to 650 g, male, obtained from Japan SLC, Inc.) were each anesthetized by intraperitoneally administering thereto sodium thiopental (product of Mitsubishi Tanabe Pharma Corporation) at 50 mg/kg. Next, a tracheal cannula was inserted into each of the guinea pigs. While their body temperature was being maintained at 37° C. with a warming pad, the guinea pigs were allowed to inhale 100% by volume oxygen and 1% by volume vaporized halothane (product of Takeda Pharmaceutical Company Limited.) using an artificial respirator for experimental animals (SN-480-7; product of shimano Co., Ltd.). Here, the artificial respirator for experimental animals was set to a tidal volume of 10 mL/kg and a respiration rate of 60 strokes/min. Next, a cannula for drug administration was inserted to their left femoral vein. In addition, a heparinized catheter for monitoring the blood pressure was inserted to the aorta through the left femoral […]. Then, ECG standard limb II leads was continuously recorded.
# Each of the guinea pigs (n=12) of Example 3 was recorded for an electrocardiogram before administration of a drug or a solvent.
# BAF312 (product of Meiji Seika Pharma Co., Ltd.) was dissolved in dimethyl sulfoxide (hereinafter may be referred to as “DMSO”; product of Sigma-Aldrich Inc.) so as to have a concentration of 0.003 mg/mL.
# (§1) After the evaluation of base control, the cannula for drug administration was inserted, and the above-prepared BAF312 solution was intravenously administered to each of the guinea pigs (n=4) of Example 3 for 10 min at a dose of 0.001 mg/kg. These guinea pigs were evaluated for parameters by the following evaluation methods at 5 min, 10 min, 15 min, 20 min, 30 min, 45 min or 60 min after the administration of the BAF312 solution.
# BAF312 (product of Meiji Seika Pharma Co., Ltd.) was dissolved in DMSO (product of Sigma-Aldrich Inc.) so as to have a concentration of 0.03 mg/mL.
# as §1, with “0.01” for “0.001”
# The aortic pressure and the electrocardiogram were monitored using a polygraph system (RM-6000, product of NIHON KOHDEN Co. Ltd.) and analyzed with a full-automated analysis system in real time (WinVAS ver. 3, 1.1R03; product of Physio-Tech Co., Ltd).
# Parameters of the electrocardiogram were measured three times, and the obtained values were averaged. Atrial rate was calculated from PP interval of the electrocardiogram. Ventricular rate was calculated from RR interval of the electrocardiogram.
# The measurements in FIGS. 6A to 6E are expressed as mean±SE (n=4). The difference between the parameters was evaluated with one-way repeated measures analysis of variance (ANOVA). It was considered that p<0.05 is statistically significant. In FIG. 6A to 6C and FIG. 6E, “white circle,” “white square” and “white triangle” each mean absence of a significant difference relative to the value of the evaluation of base control (C), and “black circle” means presence of a significant difference relative to the value of the evaluation of base control (C).
# Also, in FIG. 6D, “white circle” means absence of development of atrioventricular block or presence of development of first-degree atrioventricular block, “white triangle” means presence of development of advanced atrioventricular block, “x-mark” means presence of development of third-degree atrioventricular block (complete atrioventricular block), and #1 to 4 refer to each individual.
# [1] = high-dose 0.01 mg/kg/10 min i.v.
# [2] = low-dose 0.001 mg/kg/10 min i.v.
# [3] = low-dose 0.001 mg/kg/10 min i.v., from 5 min to 60 min
Compound,prolongation of PR interval (rat),change in QRS width (Guinea pigs (Hartley); [1]),change in QT interval (Guinea pigs (Hartley); [1]),change in atrial rate (Guinea pigs (Hartley); [1]),change in blood pressure (MBP) (Guinea pigs (Hartley); [1]),"correspondence of P wave and R wave in the electrocardiogram (Guinea pigs (Hartley); high-dose 0.01 mg/kg/10 min i.v., 45 min after start)","change in PR interval (Guinea pigs (Hartley); high-dose 0.01 mg/kg/10 min i.v., before development of atrioventricular block)","change in ventricular rate (Guinea pigs (Hartley); high-dose 0.01 mg/kg/10 min i.v., from 10 min to 15 min)","individuals that developed complete atrioventricular block (Guinea pigs (Hartley); high-dose 0.01 mg/kg/10 min i.v., n=4)",change in PR interval (Guinea pigs (Hartley); [2]),change in QRS width (Guinea pigs (Hartley); [2]),change in QT interval (Guinea pigs (Hartley); [2]),change in blood pressure (MBP) (Guinea pigs (Hartley); [2]),change in atrial rate (Guinea pigs (Hartley); [3]),change in ventricular rate (Guinea pigs (Hartley); [3])
CCCCCCCCCCCCC/C=C/[C@@H](O)[C@@H](N)COP(=O)(O)O [sphingosine-1-phosphate],not observed,,,,,,,,,,,,,,
"CCc1cc(/C(C)=N/OCc2ccc(C3CCCCC3)c(C(F)(F)F)c2)ccc1CN1CC(C(=O)O)C1 [BAF312, siponimod]",,no significant change,no significant change,no significant change,increase,the atrium and the ventricle are contracted independently of each other at their own individual rhythms,prolonged,decrease,all of the four individuals,prolongation of PR interval was observed,no significant change,no significant change,increase,decrease,decrease
